This is an account of results in ChEMBL document CHEMBL1697731, “Cheminformatics analysis of assertions mined from literature that describe drug-induced liver injury in different species” (Chem Res Toxicol, 2010).

SMILES strings stand for the structures.

In series [1] the test system is Hepatotoxicity. Kind of series: Literature-mined compound from Fourches et al multi-species drug-induced liver injury (DILI) dataset, effect in humans. To be noted: human.
Series [2] deals with Hepatotoxicity. Kind of series: Literature-mined compound from Fourches et al multi-species drug-induced liver injury (DILI) dataset, effect in rodents. To be noted: rodentia.
The subject of series [3] is Hepatotoxicity. Kind of series: Literature-mined compound from Fourches et al multi-species drug-induced liver injury (DILI) dataset, effect in non-rodents.

On to `C[C@H]1C[C@H]2[C@@H]3CCC4=CC(=O)C=C[C@]4(C)[C@@]3(F)[C@@H](O)C[C@]2(C)[C@@]1(O)C(=O)CO` [BETAMETHASONE], for which the Hepatotoxicity result is on record as “no drug-induced liver injury reported” in series [1], “drug-induced liver injury reported” in series [2] and “no drug-induced liver injury reported” in series [3].

For `C=C(C)[C@@H]1CC[C@]2(C(=O)O)CC[C@]3(C)[C@H](CC[C@@H]4[C@@]5(C)CC[C@H](O)C(C)(C)[C@@H]5CC[C@]43C)[C@@H]12` [BETULINIC ACID], the Hepatotoxicity entry in series [1] was “drug-induced liver injury reported”; in series [2], “no drug-induced liver injury reported”; in series [3] it was “no drug-induced liver injury reported”.

As to `CC(C)(Oc1ccc(CCNC(=O)c2ccc(Cl)cc2)cc1)C(=O)O` [BEZAFIBRATE], the Hepatotoxicity entry in series [1] is reported as “drug-induced liver injury reported”; in series [2], “drug-induced liver injury reported”; in series [3] it was “no drug-induced liver injury reported”.

Turning to `CC(O)(CS(=O)(=O)c1ccc(F)cc1)C(=O)Nc1ccc(C#N)c(C(F)(F)F)c1` (stereo unspecified) [BICALUTAMIDE], the Hepatotoxicity result in series [1] is “drug-induced liver injury reported”; in series [2] it was “no drug-induced liver injury reported”; in series [3] it was “no drug-induced liver injury reported”.

With `c1ccc(-c2ccc(C(c3ccccc3)n3ccnc3)cc2)cc1` (stereo unspecified) [BIFONAZOLE], the Hepatotoxicity entry is reported as “no drug-induced liver injury reported” in series [1], “drug-induced liver injury reported” in series [2] and “no drug-induced liver injury reported” in series [3].

Turning to `O=C(O)CCCC[C@@H]1SC[C@@H]2NC(=O)N[C@@H]21` [BIOTIN], the Hepatotoxicity entry in series [1] was “drug-induced liver injury reported”; in series [2], “no drug-induced liver injury reported”; in series [3] it was “no drug-induced liver injury reported”.

On to `CC(C)NCC(O)COc1ccc(COCCOC(C)C)cc1` (stereo unspecified) [BISOPROLOL], for which the Hepatotoxicity result in series [1] was “drug-induced liver injury reported”; in series [2], “no drug-induced liver injury reported”; in series [3] it was “no drug-induced liver injury reported”.

For `CC(C)C[C@H](NC(=O)[C@H](Cc1ccccc1)NC(=O)c1cnccn1)B(O)O` [BORTEZOMIB], the Hepatotoxicity result in series [1] (Liver) is “drug-induced liver injury reported”; in series [2] (Liver) it was “drug-induced liver injury reported”; in series [3] (Liver), “no drug-induced liver injury reported”.

In the case of `COc1ccccc1Oc1c(NS(=O)(=O)c2ccc(C(C)(C)C)cc2)nc(-c2ncccn2)nc1OCCO` [BOSENTAN], the Hepatotoxicity entry in series [1], in series [2] and in series [3] was “drug-induced liver injury reported” each time.

For the compound `Nc1c(CC(=O)O)cccc1C(=O)c1ccc(Br)cc1` [BROMFENAC], the Hepatotoxicity entry is “drug-induced liver injury reported” in series [1], “no drug-induced liver injury reported” in series [2] and “no drug-induced liver injury reported” in series [3].

As to `CC(C)C(Br)C(=O)NC(N)=O` (stereo unspecified) [BROMISOVALUM], the Hepatotoxicity entry in series [1] was “drug-induced liver injury reported”; in series [2], “drug-induced liver injury reported”; in series [3], “no drug-induced liver injury reported”.

On to `CC(C)C[C@H]1C(=O)N2CCC[C@H]2[C@]2(O)O[C@](NC(=O)[C@@H]3C=C4c5cccc6[nH]c(Br)c(c56)C[C@H]4N(C)C3)(C(C)C)C(=O)N12` [BROMOCRIPTINE], for which the Hepatotoxicity result in series [1] is listed as “no drug-induced liver injury reported”; in series [2], “drug-induced liver injury reported”; in series [3], “no drug-induced liver injury reported”.

For the compound `Cc1nnc2n1-c1sc(Br)cc1C(c1ccccc1Cl)=NC2` [BROTIZOLAM], the results for the Hepatotoxicity result in series [1], in series [2] and in series [3] were “no drug-induced liver injury reported”, “drug-induced liver injury reported” and “no drug-induced liver injury reported”, respectively.

On to `CCCC(=O)Nc1ncnc2c1ncn2[C@@H]1O[C@@H]2COP(=O)(O)O[C@H]2[C@H]1OC(=O)CCC` [BUCLADESINE], for which the Hepatotoxicity entry in series [1], in series [2] and in series [3] was “drug-induced liver injury reported” each time.

With `CCCC1O[C@@H]2C[C@H]3[C@@H]4CCC5=CC(=O)C=C[C@]5(C)[C@H]4[C@@H](O)C[C@]3(C)[C@]2(C(=O)CO)O1` (stereo partly specified) [BUDESONIDE], the Hepatotoxicity result in series [1] was “drug-induced liver injury reported”; in series [2] it was “drug-induced liver injury reported”; in series [3], “no drug-induced liver injury reported”.

As for `CCCCNc1cc(C(=O)O)cc(S(N)(=O)=O)c1Oc1ccccc1` [BUMETANIDE], the Hepatotoxicity result is “no drug-induced liver injury reported” in series [1], “no drug-induced liver injury reported” in series [2] and “drug-induced liver injury reported” in series [3].

For `CCCCN1CCCCC1C(=O)Nc1c(C)cccc1C` (stereo unspecified) [BUPIVACAINE], the Hepatotoxicity entry in series [1] is “no drug-induced liver injury reported”; in series [2] it was “drug-induced liver injury reported”; in series [3] it was “no drug-induced liver injury reported”.

`CO[C@]12CC[C@@]3(C[C@@H]1[C@](C)(O)C(C)(C)C)[C@H]1Cc4ccc(O)c5c4[C@@]3(CCN1CC1CC1)[C@H]2O5` [BUPRENORPHINE]: the Hepatotoxicity result in series [1] was “drug-induced liver injury reported”; in series [2], “drug-induced liver injury reported”; in series [3] it was “no drug-induced liver injury reported”.

In the case of `CC(NC(C)(C)C)C(=O)c1cccc(Cl)c1` (stereo unspecified) [BUPROPION], the Hepatotoxicity result in series [1] was “drug-induced liver injury reported”; in series [2] it was “no drug-induced liver injury reported”; in series [3], “no drug-induced liver injury reported”.

Turning to `O=C1CC2(CCCC2)CC(=O)N1CCCCN1CCN(c2ncccn2)CC1` [BUSPIRONE], the Hepatotoxicity entry is listed as “drug-induced liver injury reported” in series [1], “no drug-induced liver injury reported” in series [2] and “no drug-induced liver injury reported” in series [3].

Consider `CS(=O)(=O)OCCCCOS(C)(=O)=O` [BUSULFAN], for which the Hepatotoxicity entry was “drug-induced liver injury reported” in series [1], “drug-induced liver injury reported” in series [2] and “no drug-induced liver injury reported” in series [3].

As for `CCCCOCN(C(=O)CCl)c1c(CC)cccc1CC` [BUTACHLOR], the Hepatotoxicity entry in series [1] is reported as “no drug-induced liver injury reported”; in series [2], “drug-induced liver injury reported”; in series [3], “no drug-induced liver injury reported”.

Take `C=CCC1(CC(C)C)C(=O)NC(=O)NC1=O` [BUTALBITAL]: the Hepatotoxicity entry in series [1] is listed as “drug-induced liver injury reported”; in series [2], “no drug-induced liver injury reported”; in series [3] it was “no drug-induced liver injury reported”.

As for `CCCCC1(CC)C(=O)NC(=O)NC1=O` [BUTETHAL], the Hepatotoxicity result in series [1] is “no drug-induced liver injury reported”; in series [2] it was “drug-induced liver injury reported”; in series [3] it was “no drug-induced liver injury reported”.

As for `Cn1c(=O)c2c(ncn2C)n(C)c1=O` [CAFFEINE], the Hepatotoxicity result in series [1] was “drug-induced liver injury reported”; in series [2] it was “drug-induced liver injury reported”; in series [3], “no drug-induced liver injury reported”.

In the case of `C=C1/C(=C\C=C2/CCC[C@]3(C)[C@@H]([C@H](C)CCCC(C)(C)O)CC[C@@H]23)C[C@@H](O)C[C@@H]1O` [CALCITRIOL], the Hepatotoxicity entry is “drug-induced liver injury reported” in series [1], “drug-induced liver injury reported” in series [2] and “no drug-induced liver injury reported” in series [3].

Consider `CC[C@@]1(O)C(=O)OCc2c1cc1n(c2=O)Cc2cc3ccccc3nc2-1` [CAMPTOTHECIN], for which the Hepatotoxicity entry in series [1] is recorded as “drug-induced liver injury reported”; in series [2], “drug-induced liver injury reported”; in series [3], “no drug-induced liver injury reported”.

For the compound `CCOc1nc2cccc(C(=O)OC(C)OC(=O)OC3CCCCC3)c2n1Cc1ccc(-c2ccccc2-c2nnn[nH]2)cc1` (stereo unspecified) [CANDESARTAN CILEXETIL], the Hepatotoxicity result in series [1] is listed as “drug-induced liver injury reported”; in series [2], “drug-induced liver injury reported”; in series [3], “no drug-induced liver injury reported”.

Consider `C=C(C)[C@@H]1CCC(C)=C[C@H]1c1c(O)cc(CCCCC)cc1O` [CANNABIDIOL], for which the Hepatotoxicity entry in series [1] is recorded as “drug-induced liver injury reported”; in series [2], “drug-induced liver injury reported”; in series [3] it was “no drug-induced liver injury reported”.

Take `CCCCCOC(=O)Nc1nc(=O)n([C@@H]2O[C@H](C)[C@@H](O)[C@H]2O)cc1F` [CAPECITABINE]: the Hepatotoxicity result in series [1] is recorded as “drug-induced liver injury reported”; in series [2] it was “drug-induced liver injury reported”; in series [3], “no drug-induced liver injury reported”.

As to `COc1cc(CNC(=O)CCCC/C=C/C(C)C)ccc1O` [CAPSAICIN], the Hepatotoxicity result in series [1] was “drug-induced liver injury reported”; in series [2], “drug-induced liver injury reported”; in series [3], “no drug-induced liver injury reported”.

Consider `C[C@H](CS)C(=O)N1CCC[C@H]1C(=O)O` [CAPTOPRIL], for which the Hepatotoxicity entry in series [1] was “drug-induced liver injury reported”; in series [2], “drug-induced liver injury reported”; in series [3] it was “no drug-induced liver injury reported”.
